From PubChem BioAssay (NCI) come the findings set out here.

Experiment in all cases: DTP human tumour cell line panel, 48 h
Assay [1] has as its system IGROV1 ovarian.
The subject of assay [2] is MCF7 breast.
Assay [3] has as its system T-47D breast.
The subject of assay [4] is SNB-19 CNS.
Assay [5] relates to HOP-92 NSCLC.
In assay [6] the test system is DU-145 prostate.
For assay [7], the system named is HS 578T breast.
Assay [8] relates to NCI-H522 lung.
Assay [9] has as its system DMS 273 small cell lung.
Assay [10] deals with LXFL 529 NSCLC.
Assay [11] has as its system DLD-1 colon.
The test system of assay [12] is SNB-78 CNS.
Assay [13] has as its system NCI-H226 lung.

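Results reflect a 48-hour exposure of cells in 96-well plates to compound at five concentrations. Abbreviation: GI50, concentration required for 50% inhibition of growth. TGI marks complete inhibition of growth.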

By TGI is commonly meant the concentration giving total growth inhibition. `Oc1ccc(NCn2c(=S)sc3ccccc32)cc1`: the TGI in [1], in assay [2], in assay [3], in [4], in [5] and in assay [6] was above 100 µM throughout. Moreover, the TGI was above 100 µM in assay [7] and 40.5 µM in assay [8].
In the case of `CON(C)C(=O)C(Cc1ccccc1)NC(=O)OCc1ccccc1` (stereo not drawn), the TGI in assay [1], in assay [9], in [4], in [5], in [10] and in assay [11] was above 100 µM in each case. The TGI in assay [12] and in assay [8] was above 100 µM throughout.
As to `CO[C@](C(=O)OC[C@H]1[C@@H](COC(C)=O)[C@@H]2O[C@H]1c1cc3c(cc12)OCO3)(c1ccccc1)C(F)(F)F`, the TGI was 81.1 µM in assay [1]; above 100 µM in assay [4]; above 100 µM in [5]; above 100 µM in assay [6]; 17.2 µM in [8].
One may read the GI50 as the concentration giving 50% growth inhibition. Consider `CCCCCCOc1ccc(/C=N/Nc2cc(C)nc3ccc(Cl)cc23)cc1`, for which the GI50 in assay [1] is 1.79 µM; in assay [2], 1.47 µM; in assay [3], 1.98 µM; in [4], 1.88 µM; in [5], 1.42 µM; in assay [6], 1.86 µM. In addition, the GI50 in assay [8] is 1.79 µM. For the same compound, the TGI was found to be 3.53 µM in assay [1]; 3.2 µM in [2]; 3.97 µM in [3]; 3.39 µM in [4]; 3.07 µM in [5]; 3.57 µM in assay [6]. The same compound yielded a TGI in [8] of 3.51 µM.
As to `CCn1cnc2c(=S)nc(N)[nH]c21`, the TGI in assay [1], in assay [9], in assay [4], in assay [10], in assay [11] and in assay [13] was above 100 µM in each case. Also, the TGI in [12] and in [8] was above 100 µM throughout.
Consider `O=C(CC1Sc2ccccc2NC1=O)Nc1ccccc1[N+](=O)[O-]` (stereo not drawn), for which the TGI in [1], in [9], in assay [4], in assay [5], in assay [10] and in [11] was above 100 µM throughout. Further, the TGI is above 100 µM in assay [13], above 100 µM in assay [12] and 32.8 µM in assay [8].
Take `Cc1ccc(C(=O)OC(C(=O)O)C(OC(=O)c2ccc(C)cc2)C(=O)O)cc1` (stereo not drawn) (tested in a mixture with another compound): the TGI in [1] stood at 26.5 µM; in [9], 10.7 µM; in assay [2], 11.8 µM; in assay [4], 25.6 µM; in [5], 11.8 µM; in [11] it was 21.3 µM. The TGI in assay [13] worked out at 24.8 µM; in [12], 33.8 µM; in assay [8], 11.4 µM.
For `O=C1OC(c2ccccc2)=N/C1=C\c1ccc([N+](=O)[O-])cc1`, the TGI was above 100 µM in assay [1]; above 100 µM in assay [2]; 93.9 µM in assay [3]; above 100 µM in assay [4]; 76.2 µM in assay [5]; above 100 µM in assay [6]. Moreover, the TGI in assay [7] is above 100 µM; in assay [13], 18.9 µM; in assay [8], above 100 µM.
On to `CCOC(=O)c1csc(NC(=O)CN2CCCC2)n1`, for which the TGI in assay [1], in assay [2], in assay [3], in assay [4], in assay [5] and in assay [6] was above 100 µM throughout. In addition, the TGI in [7] and in assay [13] was above 100 µM in each case.
